# Tests used:
# [1] = biological target: T1, Substance-K receptor (Cavia porcellus) (UniProt Q64077); experiment: Inhibition of [beta-Ala]NKA(4-10)-induced contraction of isolated guinea pig trachea; format: functional, tissue-based
# T1 sequence (whole entry): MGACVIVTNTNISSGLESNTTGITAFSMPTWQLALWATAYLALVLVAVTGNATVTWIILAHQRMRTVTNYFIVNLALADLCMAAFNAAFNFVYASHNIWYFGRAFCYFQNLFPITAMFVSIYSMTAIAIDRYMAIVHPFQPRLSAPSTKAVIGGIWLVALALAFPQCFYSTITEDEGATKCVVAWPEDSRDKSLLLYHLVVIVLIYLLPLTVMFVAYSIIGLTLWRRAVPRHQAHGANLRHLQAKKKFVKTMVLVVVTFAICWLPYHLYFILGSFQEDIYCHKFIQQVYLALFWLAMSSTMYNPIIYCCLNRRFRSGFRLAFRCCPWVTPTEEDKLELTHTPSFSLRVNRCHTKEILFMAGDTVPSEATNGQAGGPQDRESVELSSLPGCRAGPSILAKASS
# Substance-K receptor = biological target: T2, Substance-K receptor (Homo sapiens, UniProt P21452); experiment: Displacement of [3H]- NKA from human NK-2 receptor expressed in MEL cells; format: cell-based
# T2 sequence (P21452 whole entry): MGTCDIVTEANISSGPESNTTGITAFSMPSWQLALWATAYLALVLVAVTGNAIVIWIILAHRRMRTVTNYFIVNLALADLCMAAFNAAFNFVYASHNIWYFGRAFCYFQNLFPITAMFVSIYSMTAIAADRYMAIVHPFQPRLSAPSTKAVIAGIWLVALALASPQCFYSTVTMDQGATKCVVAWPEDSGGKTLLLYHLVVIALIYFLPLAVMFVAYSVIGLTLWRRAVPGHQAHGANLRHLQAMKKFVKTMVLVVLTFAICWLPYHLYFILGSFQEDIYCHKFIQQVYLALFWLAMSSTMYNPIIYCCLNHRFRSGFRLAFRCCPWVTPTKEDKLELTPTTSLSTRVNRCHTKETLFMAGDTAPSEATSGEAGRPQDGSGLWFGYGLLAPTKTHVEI
# Cavia porcellus [2] = experiment: Compound was administered perorally and evaluated for oral activity in neurokinin A-induced guinea pig dyspnea model.; format: functional
# Cavia porcellus [3] = experiment: Compound was administered intravenously and evaluated for activity against neurokinin A-induced guinea pig dyspnea model; format: functional; conditions: iv
# Cavia porcellus [4] = experiment: Compound was administered perorally and evaluated for oral activity in neurokinin A-induced guinea pig dyspnea model at 5 umol/Kg dose; format: functional
# Cavia porcellus [5] = experiment: Compound was administered perorally (po) and evaluated for oral activity in neurokinin A-induced guinea pig dyspnea model at 5 umol/kg dose; format: functional
Structure (SMILES),pKB [1],Ki (Substance-K receptor),ED50 (Cavia porcellus [2]),ED50 (Cavia porcellus [3]),inhibition in vivo at 5 µmol/kg (Cavia porcellus [4]),inhibition in vivo at 5 µmol/kg (Cavia porcellus [5])
CN(CC(CCN1CCC(C(C)(C)O)CC1)c1ccc(Cl)c(Cl)c1)C(=O)c1ccccc1 (stereo unspecified),7.5,7.7 nM,–,–,–,–
CCCC(O)(CCC)C1CCN(CCC(CN(C)C(=O)c2ccccc2)c2ccc(Cl)c(Cl)c2)CC1 (stereo unspecified),8.4,4.7 nM,1.4 µmol/kg,0.54 µmol/kg,–,–
CC(=O)NCCC1CCN(CCC(CN(C)C(=O)c2ccccc2)c2ccc(Cl)c(Cl)c2)CC1 (stereo unspecified),7.9,66 nM,–,–,–,–
CC(=O)OCCC1CCN(CCC(CN(C)C(=O)c2ccccc2)c2ccc(Cl)c(Cl)c2)CC1 (stereo unspecified),7.8,–,–,–,–,–
CN(CC(CCN1CCC(CO)CC1)c1ccc(Cl)c(Cl)c1)C(=O)c1ccccc1 (stereo unspecified),8,142 nM,–,–,13%,–
CCC(=O)C1CCN(CCC(CN(C)C(=O)c2ccccc2)c2ccc(Cl)c(Cl)c2)CC1 (stereo unspecified),8.6,9.2 nM,–,–,–,–
CC(=O)NC1(c2ccccc2)CCN(CCC(CN(C)C(=O)c2ccccc2)c2ccc(Cl)c(Cl)c2)CC1 (stereo in doubt; 1) [listing 1 of 2 here],9.1,–,–,–,–,–
CCC(O)C1CCN(CCC(CN(C)C(=O)c2ccccc2)c2ccc(Cl)c(Cl)c2)CC1 (stereo unspecified),7.9,13.1 nM,–,–,–,–
CC(O)C1CCN(CCC(CN(C)C(=O)c2ccccc2)c2ccc(Cl)c(Cl)c2)CC1 (stereo unspecified),7.8,33.5 nM,–,–,–,–
CCC(O)(CC)C1CCN(CC[C@H](CN(C)C(=O)c2ccccc2)c2ccc(Cl)c(Cl)c2)CC1,8.1,0.84 nM,3.49 µmol/kg,0.4 µmol/kg,–,–
CC(=O)NC1(c2ccccc2)CCN(CCC(CN(C)C(=O)c2ccccc2)c2ccc(Cl)c(Cl)c2)CC1 (stereo in doubt; 2) [listing 1 of 2 here],9.2,–,–,–,–,–
CCCC(O)C1CCN(CCC(CN(C)C(=O)c2ccccc2)c2ccc(Cl)c(Cl)c2)CC1 (stereo unspecified),7.5,3.7 nM,–,–,–,–
CC(=O)NC1(c2ccccc2)CCN(CCC(CN(C)C(=O)c2ccccc2)c2ccc(Cl)c(Cl)c2)CC1 (stereo in doubt; 1) [listing 2 of 2 here],–,0.6 nM,1.97 µmol/kg,–,–,–
CCCC1CCN(CCC(CN(C)C(=O)c2ccccc2)c2ccc(Cl)c(Cl)c2)CC1 (stereo unspecified),7.5,9.9 nM,–,–,–,–
CN(CC(CCN1CCC(CCO)CC1)c1ccc(Cl)c(Cl)c1)C(=O)c1ccccc1 (stereo unspecified),8.3,47 nM,–,–,7%,–
CC(=O)NC1(c2ccccc2)CCN(CCC(CN(C)C(=O)c2ccccc2)c2ccc(Cl)c(Cl)c2)CC1 (stereo in doubt; 2) [listing 2 of 2 here],–,1.75 nM,–,–,–,–
CCC(O)(CC)C1CCN(CCC(CN(C)C(=O)c2ccccc2)c2ccc(Cl)c(Cl)c2)CC1 (stereo unspecified),8.8,3.5 nM,–,–,–,63%
CC/C(=N/O)C1CCN(CCC(CN(C)C(=O)c2ccccc2)c2ccc(Cl)c(Cl)c2)CC1 (stereo unspecified),8.8,2.1 nM,–,–,–,–
CC/C(=N\O)C1CCN(CCC(CN(C)C(=O)c2ccccc2)c2ccc(Cl)c(Cl)c2)CC1 (stereo unspecified),8.8,1.3 nM,–,–,–,20%
CC/C(=N\OC)C1CCN(CCC(CN(C)C(=O)c2ccccc2)c2ccc(Cl)c(Cl)c2)CC1 (stereo unspecified),7.6,6.5 nM,–,–,–,–
CCC(=NO)C1CCN(CCC(CN(C)C(=O)c2ccccc2)c2ccc(Cl)c(Cl)c2)CC1 (stereo unspecified),9.1,2.7 nM,–,–,–,–
